Literature values in PubChem BioAssay AID1259409 (Chemical Carcinogenesis Research Information System (CCRIS), 2018).

System: rodent chemically induced tumor inhibition, incidence and multiplicity
Assay: CCRIS tumor inhibitor studies
Details: Route [Inhibitor]: ORAL, Promoter: NONE USED

CC1=C(/C=C/C(C)=C/C=C/C(C)=C/C(=O)NCCO)C(C)(C)CCC1
tumour outcome (control, treated, inhibition, significance) (Carcinogen: N-NITROSOBIS(2-OXYPROPYL)AMINE, 60599-38-4, Dose [Inhibitor]: 0.05, 0.1 OR 0.2 MILLIMOLAR/KG DIET FOR 32 WK STARTING 1 WK AFTER THE CARCINOGEN DOSE (STUDY DURATION: 33 WK), Species: HAMSTER, Strain/Sex: SYRIAN/FEMALE, Target Tissue: Type of Lesion: COMMON DUCT: ADENOMA, Dose [Carcinogen]: 40 MG/KG ONCE): 4/10 (40%), 19/29 (66%), -65%, not significant
tumour outcome (control, treated, inhibition, significance) (Carcinogen: N-NITROSOBIS(2-OXYPROPYL)AMINE, 60599-38-4, Dose [Inhibitor]: 0.05, 0.1 OR 0.2 MILLIMOLAR/KG DIET FOR 32 WK STARTING 1 WK AFTER THE CARCINOGEN DOSE (STUDY DURATION: 33 WK), Species: HAMSTER, Strain/Sex: SYRIAN/FEMALE, Target Tissue: Type of Lesion: GALL BLADDER: ADENOMA, Dose [Carcinogen]: 40 MG/KG ONCE): 6/10 (60%), 17/29 (59%), 2%, not significant
tumour outcome (control, treated, inhibition, significance) (Carcinogen: N-NITROSOBIS(2-OXYPROPYL)AMINE, 60599-38-4, Dose [Inhibitor]: 0.05, 0.1 OR 0.2 MILLIMOLAR/KG DIET FOR 32 WK STARTING 1 WK AFTER THE CARCINOGEN DOSE (STUDY DURATION: 33 WK), Species: HAMSTER, Strain/Sex: SYRIAN/FEMALE, Target Tissue: Type of Lesion: LUNG: ADENOMA, Dose [Carcinogen]: 40 MG/KG ONCE): 3/10 (30%), 4/29 (14%), 53%, p<0.025
tumour outcome (control, treated, inhibition, significance) (Carcinogen: N-NITROSOBIS(2-OXYPROPYL)AMINE, 60599-38-4, Dose [Inhibitor]: 0.05, 0.1 OR 0.2 MILLIMOLAR/KG DIET FOR 32 WK STARTING 1 WK AFTER THE CARCINOGEN DOSE (STUDY DURATION: 33 WK), Species: HAMSTER, Strain/Sex: SYRIAN/FEMALE, Target Tissue: Type of Lesion: PANCREAS: ADENOMA, Dose [Carcinogen]: 40 MG/KG ONCE): 10/10 (100%), 29/29 (100%), 0%, not significant
tumour outcome (control, treated, inhibition, significance) (Carcinogen: N-NITROSOBIS(2-OXYPROPYL)AMINE, 60599-38-4, Dose [Inhibitor]: 0.05, 0.1 OR 0.2 MILLIMOLAR/KG DIET FOR 32 WK STARTING 1 WK AFTER THE CARCINOGEN DOSE (STUDY DURATION: 33 WK), Species: HAMSTER, Strain/Sex: SYRIAN/FEMALE, Target Tissue: Type of Lesion: PANCREAS: CARCINOMA, Dose [Carcinogen]: 40 MG/KG ONCE): 4/10 (40%), 15/29 (52%), -30%, not significant
tumour outcome (control, treated, inhibition, significance) (Carcinogen: N-NITROSOBIS(2-OXYPROPYL)AMINE, 60599-38-4, Dose [Inhibitor]: 0.05, 0.1 OR 0.2 MILLIMOLAR/KG DIET FOR 32 WK STARTING 1 WK AFTER THE CARCINOGEN DOSE (STUDY DURATION: 33 WK), Species: HAMSTER, Strain/Sex: SYRIAN/MALE, Target Tissue: Type of Lesion: COMMON DUCT: ADENOMA, Dose [Carcinogen]: 40 MG/KG ONCE): 4/12 (33%), 23/29 (79%), -139%, not significant
tumour outcome (control, treated, inhibition, significance) (Carcinogen: N-NITROSOBIS(2-OXYPROPYL)AMINE, 60599-38-4, Dose [Inhibitor]: 0.05, 0.1 OR 0.2 MILLIMOLAR/KG DIET FOR 32 WK STARTING 1 WK AFTER THE CARCINOGEN DOSE (STUDY DURATION: 33 WK), Species: HAMSTER, Strain/Sex: SYRIAN/MALE, Target Tissue: Type of Lesion: GALL BLADDER: ADENOMA, Dose [Carcinogen]: 40 MG/KG ONCE): 3/12 (25%), 17/29 (59%), -136%, not significant
tumour outcome (control, treated, inhibition, significance) (Carcinogen: N-NITROSOBIS(2-OXYPROPYL)AMINE, 60599-38-4, Dose [Inhibitor]: 0.05, 0.1 OR 0.2 MILLIMOLAR/KG DIET FOR 32 WK STARTING 1 WK AFTER THE CARCINOGEN DOSE (STUDY DURATION: 33 WK), Species: HAMSTER, Strain/Sex: SYRIAN/MALE, Target Tissue: Type of Lesion: LIVER: ADENOMA, Dose [Carcinogen]: 40 MG/KG ONCE): 6/12 (50%), 8/29 (28%), 44%, not significant
tumour outcome (control, treated, inhibition, significance) (Carcinogen: N-NITROSOBIS(2-OXYPROPYL)AMINE, 60599-38-4, Dose [Inhibitor]: 0.05, 0.1 OR 0.2 MILLIMOLAR/KG DIET FOR 32 WK STARTING 1 WK AFTER THE CARCINOGEN DOSE (STUDY DURATION: 33 WK), Species: HAMSTER, Strain/Sex: SYRIAN/MALE, Target Tissue: Type of Lesion: LUNG: ADENOMA, Dose [Carcinogen]: 40 MG/KG ONCE): 1/12 (8%), 5/29 (17%), -113%, not significant
tumour outcome (control, treated, inhibition, significance) (Carcinogen: N-NITROSOBIS(2-OXYPROPYL)AMINE, 60599-38-4, Dose [Inhibitor]: 0.05, 0.1 OR 0.2 MILLIMOLAR/KG DIET FOR 32 WK STARTING 1 WK AFTER THE CARCINOGEN DOSE (STUDY DURATION: 33 WK), Species: HAMSTER, Strain/Sex: SYRIAN/MALE, Target Tissue: Type of Lesion: PANCREAS: ADENOMA, Dose [Carcinogen]: 40 MG/KG ONCE): 12/12 (100%), 29/29 (100%), 0%, not significant
tumour outcome (control, treated, inhibition, significance) (Carcinogen: N-NITROSOBIS(2-OXYPROPYL)AMINE, 60599-38-4, Dose [Inhibitor]: 0.05, 0.1 OR 0.2 MILLIMOLAR/KG DIET FOR 32 WK STARTING 1 WK AFTER THE CARCINOGEN DOSE (STUDY DURATION: 33 WK), Species: HAMSTER, Strain/Sex: SYRIAN/MALE, Target Tissue: Type of Lesion: PANCREAS: CARCINOMA, Dose [Carcinogen]: 40 MG/KG ONCE): 6/12 (50%), 10/29 (34%), 32%, not significant
tumour outcome (control, treated, inhibition, significance) (Carcinogen: N-NITROSOBIS(2-OXYPROPYL)AMINE, 60599-38-4, Dose [Inhibitor]: 0.05, 0.1 OR 0.2 MM/KG DIET FOR 32 WK STARTING 1 WK AFTER THE CARCINOGEN DOSE (STUDY DURATION: 33 WK), Species: HAMSTER, Strain/Sex: SYRIAN/FEMALE, Target Tissue: Type of Lesion: PANCREAS: ADENOCARCINOMA, Dose [Carcinogen]: 40 MG/KG, ONCE, ONE WK PRIOR TO START OF AGENT TREATMENT): 2/10 (20%), 2/29 (7%), 65%, not significant
tumour outcome (control, treated, inhibition, significance) (Carcinogen: N-NITROSOBIS(2-OXYPROPYL)AMINE, 60599-38-4, Dose [Inhibitor]: 0.05, 0.1 OR 0.2 MM/KG DIET FOR 32 WK STARTING 1 WK AFTER THE CARCINOGEN DOSE (STUDY DURATION: 33 WK), Species: HAMSTER, Strain/Sex: SYRIAN/FEMALE, Target Tissue: Type of Lesion: PANCREAS: CARCINOMA IN SITU, Dose [Carcinogen]: 40 MG/KG, ONCE, ONE WK PRIOR TO START OF AGENT TREATMENT): 1/10 (10%), 11/29 (38%), -280%, not significant
tumour outcome (control, treated, inhibition, significance) (Carcinogen: N-NITROSOBIS(2-OXYPROPYL)AMINE, 60599-38-4, Dose [Inhibitor]: 0.05, 0.1 OR 0.2 MM/KG DIET FOR 32 WK STARTING 1 WK AFTER THE CARCINOGEN DOSE (STUDY DURATION: 33 WK), Species: HAMSTER, Strain/Sex: SYRIAN/FEMALE, Target Tissue: Type of Lesion: PANCREAS: INTRADUCTAL CARCINOMA, Dose [Carcinogen]: 40 MG/KG, ONCE, ONE WK PRIOR TO START OF AGENT TREATMENT): 2/10 (20%), 6/29 (21%), -5%, not significant
tumour outcome (control, treated, inhibition, significance) (Carcinogen: N-NITROSOBIS(2-OXYPROPYL)AMINE, 60599-38-4, Dose [Inhibitor]: 0.05, 0.1 OR 0.2 MM/KG DIET FOR 32 WK STARTING 1 WK AFTER THE CARCINOGEN DOSE (STUDY DURATION: 33 WK), Species: HAMSTER, Strain/Sex: SYRIAN/MALE, Target Tissue: Type of Lesion: PANCREAS: ADENOCARCINOMA, Dose [Carcinogen]: 40 MG/KG, ONCE, ONE WK PRIOR TO START OF AGENT TREATMENT): 1/12 (8%), 4/29 (14%), -75%, not significant
tumour outcome (control, treated, inhibition, significance) (Carcinogen: N-NITROSOBIS(2-OXYPROPYL)AMINE, 60599-38-4, Dose [Inhibitor]: 0.05, 0.1 OR 0.2 MM/KG DIET FOR 32 WK STARTING 1 WK AFTER THE CARCINOGEN DOSE (STUDY DURATION: 33 WK), Species: HAMSTER, Strain/Sex: SYRIAN/MALE, Target Tissue: Type of Lesion: PANCREAS: CARCINOMA IN SITU, Dose [Carcinogen]: 40 MG/KG, ONCE, ONE WK PRIOR TO START OF AGENT TREATMENT): 3/12 (25%), 5/29 (17%), 32%, not significant
tumour outcome (control, treated, inhibition, significance) (Carcinogen: N-NITROSOBIS(2-OXYPROPYL)AMINE, 60599-38-4, Dose [Inhibitor]: 0.05, 0.1 OR 0.2 MM/KG DIET FOR 32 WK STARTING 1 WK AFTER THE CARCINOGEN DOSE (STUDY DURATION: 33 WK), Species: HAMSTER, Strain/Sex: SYRIAN/MALE, Target Tissue: Type of Lesion: PANCREAS: INTRADUCTAL CARCINOMA, Dose [Carcinogen]: 40 MG/KG, ONCE, ONE WK PRIOR TO START OF AGENT TREATMENT): 2/12 (17%), 0/29 (0%), 100%, not significant
tumour outcome (control, treated, inhibition, significance) (Carcinogen: N-NITROSOBIS(2-OXYPROPYL)AMINE, 60599-38-4, Dose [Inhibitor]: 0.05, 0.1 OR 0.2 MM/KG DIET FOR 32 WK STARTING 1 WK AFTER THE CARCINOGEN DOSE (STUDY DURATION: 33 WK), Species: HAMSTER, Strain/Sex: SYRIAN/MALE, Target Tissue: Type of Lesion: PANCREAS: MICROCARCINOMA, Dose [Carcinogen]: 40 MG/KG, ONCE, ONE WK PRIOR TO START OF AGENT TREATMENT): 3/12 (25%), 4/29 (14%), 44%, not significant
tumour outcome (control, treated, inhibition, significance) (Carcinogen: NONE USED, Dose [Inhibitor]: 687 MG/KG DIET DAILY FOR 54 WK (STUDY DURATION: 54 WK), Species: RAT, Strain/Sex: ACI/SEGHAPBR/MALE, Target Tissue: Type of Lesion: ADRENAL GLAND: TUMOR): 15/43 (35%), 22/44 (50%), -43%, not significant
tumour outcome (control, treated, inhibition, significance) (Carcinogen: NONE USED, Dose [Inhibitor]: 687 MG/KG DIET DAILY FOR 54 WK (STUDY DURATION: 54 WK), Species: RAT, Strain/Sex: ACI/SEGHAPBR/MALE, Target Tissue: Type of Lesion: PANCREAS: ISLET CELL ADENOMA): 1/40 (3%), 8/44 (18%), -500%, p<0.05
tumour outcome (control, treated, inhibition, significance) (Carcinogen: NONE USED, Dose [Inhibitor]: 687 MG/KG DIET DAILY FOR 54 WK (STUDY DURATION: 54 WK), Species: RAT, Strain/Sex: ACI/SEGHAPBR/MALE, Target Tissue: Type of Lesion: PITUITARY GLAND: ADENOMA, CARCINOMA): 20/39 (51%), 19/41 (46%), 10%, not significant
tumour outcome (control, treated, inhibition, significance) (Carcinogen: NONE USED, Dose [Inhibitor]: 687 MG/KG DIET DAILY FOR 54 WK (STUDY DURATION: 54 WK), Species: RAT, Strain/Sex: ACI/SEGHAPBR/MALE, Target Tissue: Type of Lesion: PROSTATE GLAND: ADENOMA, CARCINOMA): 19/44 (43%), 12/43 (28%), 35%, not significant
tumour outcome (control, treated, inhibition, significance) (Carcinogen: NONE USED, Dose [Inhibitor]: 687 MG/KG DIET DAILY FOR 54 WK (STUDY DURATION: 54 WK), Species: RAT, Strain/Sex: ACI/SEGHAPBR/MALE, Target Tissue: Type of Lesion: SKIN: TUMOR): 12/45 (27%), 5/44 (11%), 59%, not significant
tumour outcome (control, treated, inhibition, significance) (Carcinogen: NONE USED, Dose [Inhibitor]: 687 MG/KG DIET DAILY FOR 54 WK (STUDY DURATION: 54 WK), Species: RAT, Strain/Sex: ACI/SEGHAPBR/MALE, Target Tissue: Type of Lesion: TESTES: INTERSTITIAL CELL TUMOR): 21/45 (47%), 27/44 (61%), -30%, not significant
